# Source: ChEMBL document CHEMBL5338791, “Discovery of Novel 1,3-Diphenylpyrazine Derivatives as Potent S-Phase Kinase-Associated Protein 2 (Skp2) Inhibitors for the Treatment of Cancer” (J Med Chem, 2023)
# pIC50: −log10 of the molar value.
# Target: S-phase kinase-associated protein 2/Cyclin-dependent kinases regulatory subunit 1/S-phase kinase-associated protein 1 (Homo sapiens, UniProt Q13309)
# Test: Inhibition of GST-tagged Skp2/Skp1 (unknown origin)/His6-tagged Cks1 (unknown origin) interaction preincubated with Skp2/Skp1 for 10 mins followed by Cks1 addition measured after 20 mins by HTRF assay
# Type: protein assay
# Conditions: not given
# S-phase kinase-associated protein 2/Cyclin-dependent kinases regulatory subunit 1/S-phase kinase-associated protein 1, sequence (P61024 whole entry): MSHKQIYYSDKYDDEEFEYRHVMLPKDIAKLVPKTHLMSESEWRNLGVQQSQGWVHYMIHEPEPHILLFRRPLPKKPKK
# S-phase kinase-associated protein 2/Cyclin-dependent kinases regulatory subunit 1/S-phase kinase-associated protein 1, sequence (Q13309 whole entry): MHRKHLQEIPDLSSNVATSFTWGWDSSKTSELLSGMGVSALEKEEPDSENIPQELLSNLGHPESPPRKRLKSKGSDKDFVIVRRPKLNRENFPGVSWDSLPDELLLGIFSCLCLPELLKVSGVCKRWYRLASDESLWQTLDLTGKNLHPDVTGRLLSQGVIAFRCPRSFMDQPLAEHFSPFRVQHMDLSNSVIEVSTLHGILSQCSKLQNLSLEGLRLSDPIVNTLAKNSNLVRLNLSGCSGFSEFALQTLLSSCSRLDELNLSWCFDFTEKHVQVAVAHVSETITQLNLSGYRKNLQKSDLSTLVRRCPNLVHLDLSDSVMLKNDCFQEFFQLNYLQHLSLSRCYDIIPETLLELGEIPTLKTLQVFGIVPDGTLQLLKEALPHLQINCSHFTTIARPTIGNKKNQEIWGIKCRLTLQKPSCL
# S-phase kinase-associated protein 2/Cyclin-dependent kinases regulatory subunit 1/S-phase kinase-associated protein 1, sequence (P63208 whole entry, further chain): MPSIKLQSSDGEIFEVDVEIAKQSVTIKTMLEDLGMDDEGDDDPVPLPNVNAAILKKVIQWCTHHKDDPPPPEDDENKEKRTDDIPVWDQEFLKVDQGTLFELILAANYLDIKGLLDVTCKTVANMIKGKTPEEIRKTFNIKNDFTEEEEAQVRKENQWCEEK
row,Structure (SMILES),pIC50
1,O=C(CCl)NCC1CCN(c2cnc(-c3ccccc3)c(-c3ccccc3)n2)CC1,< 4.60
2,CC(C)N(CCCCOCC(=O)Nc1ccccc1)c1cnc(-c2ccccc2)c(-c2ccccc2)n1,< 4.30
3,CC(C)(C)C(=O)NCC1CCN(c2cnc(-c3ccncc3)c(-c3ccccc3)n2)CC1,< 4.60
4,O=C(CCCl)N1CCN(c2cnc(-c3ccccc3)c(-c3ccccc3)n2)CC1,< 4.60
5,CC1CN(c2cnc(-c3ccccc3)c(-c3ccccc3)n2)CCN1C(=O)OC(C)(C)C (stereo not drawn),< 4.60
6,CN(C)c1cnc(-c2ccccc2)c(-c2ccccc2)n1,4.34
7,O=C(c1ccccc1)N1CCN(c2cnc(-c3ccccc3)c(-c3ccccc3)n2)CC1,4.75
8,O=C(CBr)NCC1CCN(c2cnc(-c3ccccc3)c(-c3ccccc3)n2)CC1,< 4.60
9,CC(C)(C)C(=O)NCC1CCN(c2cnc(-c3cn[nH]c3)c(-c3ccccc3)n2)CC1,< 4.60
10,CC(C)(C)C(=O)NCC1CCN(c2cnc(-c3cccc(CO)c3)c(-c3ccccc3)n2)CC1,< 4.60
11,Cc1ccc(S(=O)(=O)NC(=O)COCCCCN(c2cnc(-c3ccccc3)c(-c3ccccc3)n2)C(C)C)cc1,< 4.30
12,CN(CCNC(=O)OC(C)(C)C)c1cnc(-c2ccccc2)c(-c2ccccc2)n1,4.69
13,CC(C)(C)C(=O)NC1CCN(c2cnc(-c3ccccc3)c(-c3ccccc3)n2)CC1,4.99
14,CN(C)CCN(C)c1cnc(-c2ccccc2)c(-c2ccccc2)n1,< 4.30
15,COc1cnc(-c2ccccc2)c(-c2ccccc2)n1,< 4.30
16,CN(c1cnc(-c2ccccc2)c(-c2ccccc2)n1)C1CCCCC1,< 4.30
17,CC(C)(C)OC(=O)N1CCCN(c2cnc(-c3ccccc3)c(-c3ccccc3)n2)CC1,4.61
18,CS(=O)(=O)NC(=O)COCCCCNc1cnc(-c2ccccc2)c(-c2ccccc2)n1,< 4.30
19,CNc1cnc(-c2ccccc2)c(-c2ccccc2)n1,< 4.30
20,O=C(CCCl)NCC1CCN(c2cnc(-c3ccccc3)c(-c3ccccc3)n2)CC1,4.88
21,c1ccc(-c2ncc(N3CCOCC3)nc2-c2ccccc2)cc1,< 4.30
22,CC(C)N(CCCCOCC(=O)O)c1cnc(-c2ccccc2)c(-c2ccccc2)n1 [LASELIPAG],< 4.30
23,CN(C)c1ccc(-c2ncc(N3CCC(CNC(=O)C(C)(C)C)CC3)nc2-c2ccccc2)cc1,5.28
24,CC(C)(C)C(=O)NCC1CCN(c2cnc(-c3ccco3)c(-c3ccccc3)n2)CC1,5.09
25,CS(=O)(=O)NC(=O)COCCCCN(Cc1ccccc1)c1cnc(-c2ccccc2)c(-c2ccccc2)n1,< 4.30

row,Structure (SMILES),pIC50
1,O=C(c1cccs1)N1CCN(c2cnc(-c3ccccc3)c(-c3ccccc3)n2)CC1,< 4.60
2,CC(C)(C)C(=O)NCC1CCN(c2cnc(-c3cncnc3)c(-c3ccccc3)n2)CC1,< 4.60
3,C=CC(=O)N1CCN(c2cnc(-c3ccccc3)c(-c3ccccc3)n2)CC1,< 4.60
4,Oc1cnc(-c2ccccc2)c(-c2ccccc2)n1,< 4.30
5,O=C(CBr)N1CCN(c2cnc(-c3ccccc3)c(-c3ccccc3)n2)CC1,< 4.60
6,CC(C)(C)OC(=O)NC1CCN(c2cnc(-c3ccccc3)c(-c3ccccc3)n2)C1 (stereo not drawn),< 4.60
7,OCC1CCN(c2cnc(-c3ccccc3)c(-c3ccccc3)n2)CC1,< 4.30
8,CC(C)(C)C(=O)NCC1CCN(c2cnc(C3CCCCC3)c(-c3ccccc3)n2)CC1,< 4.60
9,CC(C)(C)C(=O)NCC1CCN(c2cnc(-c3ccccc3CO)c(-c3ccccc3)n2)CC1,< 4.60
10,O=C(NCC1CCN(c2cnc(-c3ccccc3)c(-c3ccccc3)n2)CC1)C1CCCCC1,5.07
11,C=Cc1ncc(N2CCC(CNC(=O)C(C)(C)C)CC2)nc1-c1ccccc1,< 4.60
12,CC(C)(C)C(=O)NCC1CCN(c2cnc(Br)c(-c3ccccc3)n2)CC1,< 4.60
13,CC(=O)NCC1CCN(c2cnc(-c3ccccc3)c(-c3ccccc3)n2)CC1,4.91
14,c1ccc(-c2ncc(NCCN3CCOCC3)nc2-c2ccccc2)cc1,< 4.30
15,CC(C)(C)OC(=O)NC1CCCN(c2cnc(-c3ccccc3)c(-c3ccccc3)n2)C1 (stereo not drawn),< 4.60
16,c1ccc(-c2ncc(NC3CCCCC3)nc2-c2ccccc2)cc1,< 4.30
17,CC(=O)N1CCN(c2cnc(-c3ccccc3)c(-c3ccccc3)n2)CC1,4.75
18,CC(C)N(C)c1cnc(-c2ccccc2)c(-c2ccccc2)n1,< 4.30
19,CC(C)COC(=O)NC1CCN(c2cnc(-c3ccccc3)c(-c3ccccc3)n2)CC1,< 4.60
20,CC1CCN(c2cnc(-c3ccccc3)c(-c3ccccc3)n2)CC1,< 4.30
21,CC(C)(C)C(=O)NCC1CCN(c2cnc(-c3ccc(C(F)(F)F)cc3)c(-c3ccccc3)n2)CC1,4.96
22,CS(=O)(=O)NC(=O)COCCNc1cnc(-c2ccccc2)c(-c2ccccc2)n1,< 4.30
23,O=C(NCC1CCN(c2cnc(-c3ccccc3)c(-c3ccccc3)n2)CC1)c1cccs1,5.07
24,O=C(NCC1CCN(c2cnc(-c3ccccc3)c(-c3ccccc3)n2)CC1)C1CC1,5.48
25,O=C(NC1CCN(c2cnc(-c3ccccc3)c(-c3ccccc3)n2)CC1)OCc1ccccc1,< 4.60

row,Structure (SMILES),pIC50
1,O=C(C1CCCCC1)N1CCN(c2cnc(-c3ccccc3)c(-c3ccccc3)n2)CC1,< 4.60
2,Clc1cnc(-c2ccccc2)c(-c2ccccc2)n1,< 4.30
3,CC(C)(C)C(=O)N1CCN(c2cnc(-c3ccccc3)c(-c3ccccc3)n2)CC1,4.88
4,CN(C(=O)OC(C)(C)C)C1CCN(c2cnc(-c3ccccc3)c(-c3ccccc3)n2)CC1,< 4.60
5,CC(C)(C)OC(=O)NC1CCN(c2cnc(-c3ccccc3)c(-c3ccccc3)n2)CC1,4.86
6,CN(C)C1CCN(c2cnc(-c3ccccc3)c(-c3ccccc3)n2)CC1,< 4.30
7,CC(C)(C)C(=O)NCC1CCN(c2cnc(-c3ccc(N)cc3)c(-c3ccccc3)n2)CC1,< 4.60
8,O=C(C1CC1)N1CCN(c2cnc(-c3ccccc3)c(-c3ccccc3)n2)CC1,5.24
9,CC(C)(C)OC(=O)NCCCNc1cnc(-c2ccccc2)c(-c2ccccc2)n1,< 4.60
10,Cc1ccc(S(=O)(=O)NC2CCN(c3cnc(-c4ccccc4)c(-c4ccccc4)n3)CC2)cc1,< 4.60
11,CC(C)N(CCCCOCC(=O)N1CCOCC1)c1cnc(-c2ccccc2)c(-c2ccccc2)n1,4.28
12,CN(C)CCNc1cnc(-c2ccccc2)c(-c2ccccc2)n1,< 4.30
13,CCC(=O)N1CCN(c2cnc(-c3ccccc3)c(-c3ccccc3)n2)CC1,5.00
14,CN1CCN(c2cnc(-c3ccccc3)c(-c3ccccc3)n2)CC1,< 4.30
15,O=C(NC1CCN(c2cnc(-c3ccccc3)c(-c3ccccc3)n2)CC1)Oc1ccccc1,4.87
16,O=C(NCC1CCN(c2cnc(-c3ccccc3)c(-c3ccccc3)n2)CC1)C(F)(F)F,4.81
17,C=CC(=O)NCC1CCN(c2cnc(-c3ccccc3)c(-c3ccccc3)n2)CC1,< 4.60
18,CC(C)Nc1cnc(-c2ccccc2)c(-c2ccccc2)n1,< 4.30
19,CC(C)N(CCCCOCC(=O)Nc1nccs1)c1cnc(-c2ccccc2)c(-c2ccccc2)n1,< 4.30
20,O=C(N1CCOCC1)N1CCN(c2cnc(-c3ccccc3)c(-c3ccccc3)n2)CC1,< 4.60
21,O=C(CCl)N1CCN(c2cnc(-c3ccccc3)c(-c3ccccc3)n2)CC1,5.00
22,c1ccc(-c2ncc(N3CCSCC3)nc2-c2ccccc2)cc1,< 4.30
23,CC(C)c1ncc(N2CCC(CNC(=O)C(C)(C)C)CC2)nc1-c1ccccc1,< 4.60
24,CCS(=O)(=O)NC1CCN(c2cnc(-c3ccccc3)c(-c3ccccc3)n2)CC1,< 4.60
25,NC1CCN(c2cnc(-c3ccccc3)c(-c3ccccc3)n2)CC1,4.60

# Test system: MGC-803
# Test: Antitumor activity against human MGC-803 cells assessed as cell growth inhibition incubated for 72 hrs by MTT assay
# Type: functional, cell-based
# Conditions: MGC-803, 72 h
row,Structure (SMILES),pIC50
1,CC(C)(C)C(=O)NCC1CCN(c2cnc(-c3ccc(CO)cc3)c(-c3ccccc3)n2)CC1,< 4.00
2,O=C(NCC1CCN(c2cnc(-c3ccccc3)c(-c3ccccc3)n2)CC1)N1CCOCC1,4.23
3,CC(C)(C)C(=O)NCC1CCN(c2cnc(-c3ccccc3)c(-c3ccccc3)n2)CC1,< 4.00

# Test system: NCI-H1299
# Test: Antitumor activity against human NCI-H1299 cells assessed as cell growth inhibition incubated for 72 hrs by MTT assay
# Type: functional, cell-based
# Conditions: NCI-H1299, 72 h
row,Structure (SMILES),pIC50
1,CC(C)(C)C(=O)NCC1CCN(c2cnc(-c3ccc(CO)cc3)c(-c3ccccc3)n2)CC1,4.00
2,O=C(NCC1CCN(c2cnc(-c3ccccc3)c(-c3ccccc3)n2)CC1)N1CCOCC1,4.52
3,CC(C)(C)C(=O)NCC1CCN(c2cnc(-c3ccccc3)c(-c3ccccc3)n2)CC1,4.23

# Test system: MCF7
# Test: Antitumor activity against human MCF7 cells assessed as cell growth inhibition incubated for 72 hrs by MTT assay
# Type: functional, cell-based
# Conditions: MCF7, 72 h
row,Structure (SMILES),pIC50
1,CC(C)(C)C(=O)NCC1CCN(c2cnc(-c3ccc(CO)cc3)c(-c3ccccc3)n2)CC1,< 4.00
2,O=C(NCC1CCN(c2cnc(-c3ccccc3)c(-c3ccccc3)n2)CC1)N1CCOCC1,4.33
3,CC(C)(C)C(=O)NCC1CCN(c2cnc(-c3ccccc3)c(-c3ccccc3)n2)CC1,4.29

# Test system: not listed separately
# Test: Antitumor activity against human EC1 cells assessed as cell growth inhibition incubated for 72 hrs by MTT assay
# Type: functional, cell-based
# Conditions: EC1, 72 h
row,Structure (SMILES),pIC50
1,CC(C)(C)C(=O)NCC1CCN(c2cnc(-c3ccc(CO)cc3)c(-c3ccccc3)n2)CC1,< 4.00
2,O=C(NCC1CCN(c2cnc(-c3ccccc3)c(-c3ccccc3)n2)CC1)N1CCOCC1,4.29
3,CC(C)(C)C(=O)NCC1CCN(c2cnc(-c3ccccc3)c(-c3ccccc3)n2)CC1,4.12

# Test system: PC-3
# Test: Antitumor activity against human PC-3 cells assessed as cell growth inhibition incubated for 72 hrs by MTT assay
# Type: functional, cell-based
# Conditions: PC-3, 72 h
row,Structure (SMILES),pIC50
1,CC(C)(C)C(=O)NCC1CCN(c2cnc(-c3ccc(CO)cc3)c(-c3ccccc3)n2)CC1,< 4.00
2,O=C(NCC1CCN(c2cnc(-c3ccccc3)c(-c3ccccc3)n2)CC1)N1CCOCC1,4.54
3,CC(C)(C)C(=O)NCC1CCN(c2cnc(-c3ccccc3)c(-c3ccccc3)n2)CC1,4.17

# Test system: not listed separately
# Test: Solubility in cell culture medium by HPLC analysis
# Type: physicochemical
# Conditions: not given
row,Structure (SMILES),solubility [µg/mL]
1,CC(C)(C)C(=O)NCC1CCN(c2cnc(-c3ccc(CO)cc3)c(-c3ccccc3)n2)CC1,0.06
2,O=C(NCC1CCN(c2cnc(-c3ccccc3)c(-c3ccccc3)n2)CC1)N1CCOCC1,0.55
3,CC(C)(C)C(=O)NCC1CCN(c2cnc(-c3ccccc3)c(-c3ccccc3)n2)CC1,0.1
